The text below walks through data of patent US9044421B2, “Treating MUC1-expressing cancers with combination therapies” (GENUS ONCOLOGY, LLC., priority 2012, dated 2015).

Where a SMILES comes first, the peptide text is derived from it. [ ]: non-standard residue; d: D form.

Test [1] has as its target PI3-kinase. As to conditions: different cell types (Folks et al., 2008); cited from earlier work.
For test [2], the system named is H-1650 non small cell lung carcinoma cells. The test can be described thus: AlamarBlue cell viability assay, H-1650 cells. It counts as cell-based. The method, then: FIG. 1. H-1650 non small cell lung carcinoma cells in a 96-well plate were treated with various concentrations of purified GO-203-2C for four days. AlamarBlue dye was added to the cells on day 5, and the absorbance was measured at 570 and 600 nm. A 4-parameter curve was obtained by plotting the percentage reduction of alamarBlue calculated using these absorbance values against the concentration of GO-203-2C used.
alamarBlue assay involves the usage of a fluorometric/colorimetric growth indicator, alamarBlue based on the metabolic activity of cells. As cells grow, the innate metabolic activity results in a chemical reduction of alamarBlue. Continued growth maintains a reduced environment while inhibition of growth maintains an oxidized environment. Live cells cause the change of alamarBlue from oxidized (non-fluorescent, blue) form to reduced (fluorescent, red) form. Data can be collected using either fluorescence-based or absorbance-based instrumentation. Fluorescence is monitored at 530-560 nm excitation wavelength and at 590 nm emission wavelength. Absorbance is monitored at 570 am and 600 nm.
This assay was developed with a 96-well plate using ZR-75-1 or MCF-7 (breast carcinoma cell lines) or H1650 non-small cell lung carcinoma cells at different cell concentrations and the optimal cell number was calculated to be 5,000 cells/well in […] volume. The cell number/well has to be optimized for each cell type to be tested. ZR-75-1 or MCF-7 cells were treated with various concentrations of GO-203-2c, LY294002 or GDC-0941 with 2-fold serial dilutions to obtain a total of 8 different concentrations. Cells in triplicate wells were treated with each concentration of GO-203-2c every day, for 4 days. […] At the end of each hour, absorbance of the plate was measured at 570 nm and 600 nm as reference. A set of blank wells was maintained with medium alone and medium with alamarBlue for the purpose of calculating actual absorbance. Obtained absorbance values were plotted against respective concentrations of GO-2-3-2c. […]

Test [3] has as its system p-S6K. The test can be described thus: Immunoblotting of total cell lysates with anti-phospho-S6K. Format: cell-based. As to conditions: ZR-75-1 cells, combined with GDC-0941 (FIG. 9). Here is the method:
FIG. 9. ZR-75-1 breast carcinoma cells were treated with GO-203-2C and GDC-0941 either alone or in combination. Total cell lysates were prepared and analyzed by immunoblotting with anti-phospho-S6K (top panel) or anti-S6K (bottom panel).

Test [4] deals with p-AKT. The test can be described thus: Immunoblotting of total cell lysates with anti-phospho-AKT. It counts as cell-based. The conditions noted are these: ZR-75-1 cells, combined with LY294002 (FIG. 8). Here is the method: FIG. 8. ZR-75-1 breast carcinoma cells were treated with GO-203-2C and LY294002 either alone or in combination. Total cell lysates were prepared and analyzed by immunoblotting with anti-phospho-AKT (top panel) or anti-AKT (bottom panel).
(In western blotting, separated proteins are transferred to a membrane and probed.)

As usually defined, the IC50 is the concentration that inhibits the measured activity by half. On to `CS(=O)(=O)N1CCN(Cc2cc3nc(-c4cccc5[nH]ncc45)nc(N4CCOCC4)c3s2)CC1` [GDC-0941], for which the IC50 in test [1] was 0.5 to 2 µM.
In the case of `CC(=O)N[C@H](CCCNC(=N)N)C(=O)N[C@H](CCCNC(=N)N)C(=O)N[C@H](CCCNC(=N)N)C(=O)N[C@H](CCCNC(=N)N)C(=O)N[C@H](CCCNC(=N)N)C(=O)N[C@H](CCCNC(=N)N)C(=O)N[C@H](CCCNC(=N)N)C(=O)N[C@H](CCCNC(=N)N)C(=O)N[C@H](CCCNC(=N)N)C(=O)N[C@H](CS)C(=O)N[C@H](CCC(N)=O)C(=O)N[C@H](CS)C(=O)N[C@H](CCCNC(=N)N)C(=O)N[C@H](CCCNC(=N)N)C(=O)N[C@H](CCCCN)C(=O)N[C@H](CC(N)=O)C(N)=O` [GO-203-2C] (Ac-[dR][dR][dR][dR][dR][dR][dR][dR][dR][dC][dQ][dC][dR][dR][dK][dN]-NH2), the live cells in test [2] (at 10 mM) is given as 12.3%. The “percent reduction of alamarBlue” value is on record as 6.86% in test [2] (highest concentration tested (10 mM)) and 55.65% in test [2] (lowest concentration tested (0.078 mM), untreated control 55.34%). The “effect on p-S6K” value in test [3] was “contributing to the downregulation”. Moreover, the “effect on p-AKT” value in test [4] is “contributing to the downregulation”.
